Values after ≈ are worked out from the molar mass of the structure shown.
How the values were obtained:
[1] = system: S. aureus USA300 wild type; assay: microbe, parasite or virus in culture; format: cell-based
Source text: Wild-type clinical S. aureus strains were obtained from the Network on Antibiotic Resistance in Staphylococcus aureus (NARSA/BEI) program. MRSA strain USA300 refers throughout this paper to strain NRS384 from NARSA/BEI. A global panel of 102 clinical S. aureus isolates was selected from the collection of International Health Management Associates, Inc. (IHMA; Schaumburg, IL), based on diversity of geographic locations, antibiotic resistance profiles, and sites of infection. Bacteria were cultured on cation-adjusted Mueller-Hinton agar (MHA) plates or in cation-adjusted Mueller-Hinton broth (MHB). Bacterial strains used in this study are listed in Table S5 in the supplemental material.
(§1) MICs were determined according to the standard protocol from the Clinical and Laboratory Standards Institute ([23]). Briefly, S. aureus bacteria were harvested from regular MHA plates that had been cultured for ~20 h at 37°C. Serial dilutions of compound 103 were incubated with bacteria at approximately 10^6 CFU (CFU)/ml in MHB in round-bottom 96 well plates (Corning, Corning, NY) for 22 h at 37°C. MICs were determined by the lowest concentration of compound 103 showing absence of growth by visual inspection.

[2] = system: S. aureus USA300 cro/cI (M1V) (GNE0117); assay: MIC, cro/cI(M1V) mutant; format: cell-based; details: for effect of cro/cI mutation on sensitivity to antibiotics: result in words, versus USA300 WT
Protocol: as §1

[3] = system: USA300 WT strain (strain GNE0023); assay: MIC, parental USA300 WT strain GNE0023; format: cell-based, S. aureus
Protocol: as §1
(§2) To generate mutations in SAUSA300_0351, _0352, and _0353 genes by homologous recombination, we transformed USA300 Δmcr using targeting constructs created in the vector pIMAY ([24]). To generate mutations in SAUSA300_0351, _0352, and _0353 genes in a cro/cI mutant background, we selected colonies from USA300 Δmcr cultured on plates containing fourfold the MIC of compound 103. Sequencing of PCR products of the cro/cI gene from resistant colonies yielded a clone with a Q16stop codon mutation in cro/cI (strain GNE0173). We further mutated SAUSA300_0351, _0352, and _0353 in this USA300 Δmcr cro/cI (Q16stop) clone to study the contributions of these three genes to cro/cI-mediated resistance.

[4] = system: S. aureus USA300 SAUSA300_0352(K44A) mutant (strain GNE0174); assay: MIC, K44A mutant GNE0174; format: cell-based
Protocol: as §1, §2

[5] = S. aureus USA300 cro/cI (M1V) (GNE0117), Table S2

Compound | MIC ([1]; Staphylococcus aureus, USA300) [µg/mL] | effect of cro/cI mutation on sensitivity to antibiotics [2] | also measured
CCC[C@@H]1C[C@@H](C(=O)N[C@@H]([C@H]2O[C@H](SC)[C@H](O)[C@@H](O)[C@H]2O)[C@H](C)Cl)N(C)C1 [Clindamycin] | 0.25 (≈ 0.588 µM) | did not reduce sensitivity | –
CCCCCCCCCC(=O)N[C@@H](Cc1c[nH]c2ccccc12)C(=O)N[C@H](CC(N)=O)C(=O)N[C@@H](CC(=O)O)C(=O)N[C@@H]1C(=O)NCC(=O)N[C@@H](CCCN)C(=O)N[C@@H](CC(=O)O)C(=O)N[C@H](C)C(=O)N[C@@H](CC(=O)O)C(=O)NCC(=O)N[C@H](CO)C(=O)N[C@@H]([C@H](C)CC(=O)O)C(=O)N[C@@H](CC(=O)c2ccccc2N)C(=O)O[C@@H]1C [Daptomycin] | – | did not reduce sensitivity | MIC ([1]; S. aureus USA300 WT, Table S2): 2 µg/mL (≈ 1.23 µM); MIC [2, 5]: 2 µg/mL (≈ 1.23 µM)
CC[C@H]1OC(=O)[C@H](C)[C@@H](O[C@H]2C[C@@](C)(OC)[C@@H](O)[C@H](C)O2)[C@H](C)[C@@H](O[C@@H]2O[C@H](C)C[C@H](N(C)C)[C@H]2O)[C@](C)(O)C[C@@H](C)C(=O)[C@H](C)[C@@H](O)[C@]1(C)O [Erythromycin] | > 64 | did not reduce sensitivity | MIC ([2]; Staphylococcus aureus, USA300): > 64 µg/mL
COc1c(N2CCNC(C)C2)c(F)cc2c(=O)c(C(=O)O)cn(C3CC3)c12 (stereo not drawn) [Gatifloxacin] | 0.5 (≈ 1.33 µM) | did not reduce sensitivity | –
CNC(C)C1CCC(N)C(OC2C(N)CC(N)C(OC3OCC(C)(O)C(NC)C3O)C2O)O1 (stereo not drawn) [Gentamycin] | 1 (≈ 2.09 µM) | did not reduce sensitivity | –
CC(=O)NC[C@H]1CN(c2ccc(N3CCOCC3)c(F)c2)C(=O)O1 [Linezolid] | 4 (≈ 11.9 µM) | did not reduce sensitivity | –
CO[C@@H]1[C@@H](OC(N)=O)[C@@H](O)[C@H](Oc2ccc3c(O)c(NC(=O)c4ccc(O)c(CC=C(C)C)c4)c(=O)oc3c2C)OC1(C)C [Novobiocin] | 0.25 (≈ 0.408 µM) | did not reduce sensitivity | –
Cc1onc(-c2ccccc2)c1C(=O)N[C@@H]1C(=O)N2[C@@H]1SC(C)(C)[C@@H]2C(=O)O [Oxacillin] | 64 (≈ 159 µM) | did not reduce sensitivity | –
CO[C@H]1/C=C/O[C@@]2(C)Oc3c(C)c(O)c4c(O)c(c(/C=N/N5CCN(C)CC5)c(O)c4c3C2=O)NC(=O)/C(C)=C\C=C\[C@H](C)[C@H](O)[C@@H](C)[C@@H](O)[C@@H](C)[C@H](OC(C)=O)[C@@H]1C [Rifampicin] | 0.06 (≈ 0.0729 µM) | did not reduce sensitivity | –
CN[C@H](CC(C)C)C(=O)N[C@H]1C(=O)N[C@@H](CC(N)=O)C(=O)N[C@H]2C(=O)N[C@H]3C(=O)N[C@H](C(=O)N[C@H](C(=O)O)c4cc(O)cc(O)c4-c4cc3ccc4O)[C@H](O)c3ccc(c(Cl)c3)Oc3cc2cc(c3O[C@@H]2O[C@H](CO)[C@@H](O)[C@H](O)[C@H]2O[C@H]2C[C@](C)(N)[C@H](O)[C@H](C)O2)Oc2ccc(cc2Cl)[C@H]1O [Vancomycin] | – | did not reduce sensitivity | MIC ([1]; S. aureus USA300 WT, Table S2): 2 µg/mL (≈ 1.38 µM); MIC [2, 5]: 1 µg/mL (≈ 0.69 µM)
nisin | – | – | MIC [3]: 200 µg/mL; MIC [4]: 200 µg/mL
protamine | – | – | MIC [3]: 8 µg/mL; MIC [4]: 8 µg/mL

Source: article PMC5013292, “A Putative Bacterial ABC Transporter Circumvents the Essentiality of Signal Peptidase” (mBio, 2016)
